Source: paper PMC10507085, “Pharmacological inhibition of TBK1/IKKε blunts immunopathology in a murine model of SARS-CoV-2 infection” (Nature Communications, 2023)

Key:
Experiment in all cases: biochemical
Set-up in all cases: KINOMEscan competition binding, DNA-tagged kinase against immobilised ligand, qPCR read-out
Settings in all cases: read-out: Percent Control
TSSK3 = TSSK3 (Homo sapiens, UniProt Q96PN8)
MAP3K15 = MAP3K15 (Homo sapiens, UniProt Q6ZN16)
GRK1 = GRK1 (Homo sapiens, UniProt Q15835)
Sequence of GRK1 (Q15835 whole entry): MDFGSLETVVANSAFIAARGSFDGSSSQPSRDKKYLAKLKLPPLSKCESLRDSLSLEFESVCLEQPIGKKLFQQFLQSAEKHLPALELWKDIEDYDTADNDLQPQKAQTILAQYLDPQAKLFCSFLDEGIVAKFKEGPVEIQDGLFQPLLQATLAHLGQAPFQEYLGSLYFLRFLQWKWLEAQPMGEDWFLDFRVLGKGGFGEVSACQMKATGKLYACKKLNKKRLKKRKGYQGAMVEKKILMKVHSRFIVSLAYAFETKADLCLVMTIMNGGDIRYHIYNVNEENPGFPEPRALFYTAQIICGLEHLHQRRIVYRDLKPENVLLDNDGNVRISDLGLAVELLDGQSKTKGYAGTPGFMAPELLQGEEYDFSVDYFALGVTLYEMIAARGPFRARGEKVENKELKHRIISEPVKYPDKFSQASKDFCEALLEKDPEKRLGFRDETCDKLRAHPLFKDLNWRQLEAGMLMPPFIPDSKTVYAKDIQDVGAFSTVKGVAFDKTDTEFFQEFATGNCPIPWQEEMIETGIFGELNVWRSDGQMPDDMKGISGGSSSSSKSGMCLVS

CDKL3 = CDKL3 (Homo sapiens, UniProt Q8IVW4)
Sequence of CDKL3 (Q8IVW4 whole entry): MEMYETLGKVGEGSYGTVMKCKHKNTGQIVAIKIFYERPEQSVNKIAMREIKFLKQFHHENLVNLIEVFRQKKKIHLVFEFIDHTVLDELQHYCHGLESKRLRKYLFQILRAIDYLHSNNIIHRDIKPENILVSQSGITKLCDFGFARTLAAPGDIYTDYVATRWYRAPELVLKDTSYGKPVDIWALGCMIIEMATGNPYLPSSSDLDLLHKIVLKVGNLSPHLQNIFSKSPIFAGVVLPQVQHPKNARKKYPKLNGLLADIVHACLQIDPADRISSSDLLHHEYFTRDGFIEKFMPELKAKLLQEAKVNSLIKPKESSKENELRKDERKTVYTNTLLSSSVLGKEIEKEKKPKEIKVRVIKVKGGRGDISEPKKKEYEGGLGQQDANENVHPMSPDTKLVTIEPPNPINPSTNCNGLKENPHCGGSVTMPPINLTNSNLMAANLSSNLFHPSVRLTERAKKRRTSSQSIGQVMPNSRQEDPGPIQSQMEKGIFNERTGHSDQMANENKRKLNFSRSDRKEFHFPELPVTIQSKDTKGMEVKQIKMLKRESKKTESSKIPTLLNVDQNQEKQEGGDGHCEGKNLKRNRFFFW

CSF1R = CSF1R (Homo sapiens, UniProt P07333)
NTRK2 = NTRK2 (Homo sapiens, UniProt Q16620)
Sequence of NTRK2 (Q16620 whole entry): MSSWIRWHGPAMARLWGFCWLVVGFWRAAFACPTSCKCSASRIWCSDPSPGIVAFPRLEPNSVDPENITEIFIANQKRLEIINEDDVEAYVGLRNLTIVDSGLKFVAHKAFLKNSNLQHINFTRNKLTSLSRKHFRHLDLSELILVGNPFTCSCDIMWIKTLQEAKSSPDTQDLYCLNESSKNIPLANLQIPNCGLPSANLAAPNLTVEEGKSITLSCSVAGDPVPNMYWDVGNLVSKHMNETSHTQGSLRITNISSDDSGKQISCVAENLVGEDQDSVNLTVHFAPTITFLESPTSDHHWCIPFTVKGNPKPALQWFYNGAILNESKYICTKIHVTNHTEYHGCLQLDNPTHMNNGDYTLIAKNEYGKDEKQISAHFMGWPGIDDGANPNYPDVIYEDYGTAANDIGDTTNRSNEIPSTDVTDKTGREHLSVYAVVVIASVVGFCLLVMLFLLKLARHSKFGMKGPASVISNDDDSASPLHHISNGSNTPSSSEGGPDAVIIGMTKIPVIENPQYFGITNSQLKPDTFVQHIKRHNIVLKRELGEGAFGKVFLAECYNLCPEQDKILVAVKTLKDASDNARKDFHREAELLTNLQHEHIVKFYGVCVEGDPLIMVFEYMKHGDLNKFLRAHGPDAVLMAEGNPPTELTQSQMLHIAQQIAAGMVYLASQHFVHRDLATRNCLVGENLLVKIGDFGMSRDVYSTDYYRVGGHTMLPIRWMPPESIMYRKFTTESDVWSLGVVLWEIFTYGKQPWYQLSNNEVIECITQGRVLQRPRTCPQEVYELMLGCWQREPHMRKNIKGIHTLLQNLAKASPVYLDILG

FLT3-autoinhibited = FLT3-autoinhibited (Homo sapiens, UniProt P36888)
MAP2K5 = MAP2K5 (Homo sapiens, UniProt Q13163)
ABL1-nonphosphorylated = target: T1, ABL1-nonphosphorylated (Homo sapiens, UniProt P00519)
T1 construct: nonphosphorylated
T1 sequence (P00519 whole entry): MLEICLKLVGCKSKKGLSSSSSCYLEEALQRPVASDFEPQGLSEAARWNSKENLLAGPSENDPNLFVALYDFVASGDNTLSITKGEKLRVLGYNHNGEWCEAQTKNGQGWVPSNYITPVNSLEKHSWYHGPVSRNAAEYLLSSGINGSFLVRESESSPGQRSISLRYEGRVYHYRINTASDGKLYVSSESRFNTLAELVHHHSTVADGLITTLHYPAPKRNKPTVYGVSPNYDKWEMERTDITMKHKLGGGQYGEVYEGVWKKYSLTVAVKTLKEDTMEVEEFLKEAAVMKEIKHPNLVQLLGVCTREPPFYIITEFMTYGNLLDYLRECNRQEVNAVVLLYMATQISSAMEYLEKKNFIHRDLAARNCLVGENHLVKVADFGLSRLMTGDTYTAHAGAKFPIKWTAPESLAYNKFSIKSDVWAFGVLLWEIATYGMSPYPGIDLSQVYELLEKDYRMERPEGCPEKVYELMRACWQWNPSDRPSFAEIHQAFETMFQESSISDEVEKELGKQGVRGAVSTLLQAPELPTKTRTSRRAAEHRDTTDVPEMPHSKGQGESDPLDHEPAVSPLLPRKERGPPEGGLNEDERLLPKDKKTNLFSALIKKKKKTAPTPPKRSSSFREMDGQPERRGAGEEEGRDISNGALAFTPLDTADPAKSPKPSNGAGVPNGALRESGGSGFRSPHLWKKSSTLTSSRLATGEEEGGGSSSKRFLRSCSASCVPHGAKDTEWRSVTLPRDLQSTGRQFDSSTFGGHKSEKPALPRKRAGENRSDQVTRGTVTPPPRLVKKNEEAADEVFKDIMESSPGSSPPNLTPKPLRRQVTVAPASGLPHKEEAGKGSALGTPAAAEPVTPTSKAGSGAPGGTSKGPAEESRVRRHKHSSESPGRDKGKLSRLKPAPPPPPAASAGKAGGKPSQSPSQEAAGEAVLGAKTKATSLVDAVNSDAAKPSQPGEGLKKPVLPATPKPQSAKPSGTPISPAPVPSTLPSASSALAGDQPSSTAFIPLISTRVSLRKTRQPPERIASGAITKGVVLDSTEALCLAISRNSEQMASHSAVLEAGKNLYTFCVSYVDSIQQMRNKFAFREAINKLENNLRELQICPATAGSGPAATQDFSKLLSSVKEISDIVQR

TXK = TXK (Homo sapiens, UniProt P42681)
Sequence of TXK (P42681 whole entry): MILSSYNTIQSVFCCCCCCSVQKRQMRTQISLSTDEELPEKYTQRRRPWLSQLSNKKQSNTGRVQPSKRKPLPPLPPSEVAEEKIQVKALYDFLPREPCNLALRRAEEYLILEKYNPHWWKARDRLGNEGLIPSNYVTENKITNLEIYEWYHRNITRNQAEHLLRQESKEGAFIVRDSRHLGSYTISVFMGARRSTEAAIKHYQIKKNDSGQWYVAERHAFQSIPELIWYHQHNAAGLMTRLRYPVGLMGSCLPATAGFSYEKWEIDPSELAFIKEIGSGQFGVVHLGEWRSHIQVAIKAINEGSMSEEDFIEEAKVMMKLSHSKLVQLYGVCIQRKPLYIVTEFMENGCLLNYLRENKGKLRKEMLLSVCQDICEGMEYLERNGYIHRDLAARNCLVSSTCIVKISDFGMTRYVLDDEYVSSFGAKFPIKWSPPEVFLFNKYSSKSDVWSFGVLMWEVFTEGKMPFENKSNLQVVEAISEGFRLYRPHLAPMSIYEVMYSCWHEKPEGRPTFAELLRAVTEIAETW

PIK3C2G = PIK3C2G (Homo sapiens, UniProt O75747)
NEK3 = NEK3 (Homo sapiens, UniProt P51956)
LATS1 = LATS1 (Homo sapiens, UniProt O95835)
SRPK3 = SRPK3 (Homo sapiens, UniProt Q9UPE1)
MKNK1 = MKNK1 (Homo sapiens, UniProt Q9BUB5)
MAPK14 = MAPK14 (Homo sapiens, UniProt Q16539)
FLT1 = FLT1 (Homo sapiens, UniProt P17948)
Sequence of FLT1 (P17948 whole entry): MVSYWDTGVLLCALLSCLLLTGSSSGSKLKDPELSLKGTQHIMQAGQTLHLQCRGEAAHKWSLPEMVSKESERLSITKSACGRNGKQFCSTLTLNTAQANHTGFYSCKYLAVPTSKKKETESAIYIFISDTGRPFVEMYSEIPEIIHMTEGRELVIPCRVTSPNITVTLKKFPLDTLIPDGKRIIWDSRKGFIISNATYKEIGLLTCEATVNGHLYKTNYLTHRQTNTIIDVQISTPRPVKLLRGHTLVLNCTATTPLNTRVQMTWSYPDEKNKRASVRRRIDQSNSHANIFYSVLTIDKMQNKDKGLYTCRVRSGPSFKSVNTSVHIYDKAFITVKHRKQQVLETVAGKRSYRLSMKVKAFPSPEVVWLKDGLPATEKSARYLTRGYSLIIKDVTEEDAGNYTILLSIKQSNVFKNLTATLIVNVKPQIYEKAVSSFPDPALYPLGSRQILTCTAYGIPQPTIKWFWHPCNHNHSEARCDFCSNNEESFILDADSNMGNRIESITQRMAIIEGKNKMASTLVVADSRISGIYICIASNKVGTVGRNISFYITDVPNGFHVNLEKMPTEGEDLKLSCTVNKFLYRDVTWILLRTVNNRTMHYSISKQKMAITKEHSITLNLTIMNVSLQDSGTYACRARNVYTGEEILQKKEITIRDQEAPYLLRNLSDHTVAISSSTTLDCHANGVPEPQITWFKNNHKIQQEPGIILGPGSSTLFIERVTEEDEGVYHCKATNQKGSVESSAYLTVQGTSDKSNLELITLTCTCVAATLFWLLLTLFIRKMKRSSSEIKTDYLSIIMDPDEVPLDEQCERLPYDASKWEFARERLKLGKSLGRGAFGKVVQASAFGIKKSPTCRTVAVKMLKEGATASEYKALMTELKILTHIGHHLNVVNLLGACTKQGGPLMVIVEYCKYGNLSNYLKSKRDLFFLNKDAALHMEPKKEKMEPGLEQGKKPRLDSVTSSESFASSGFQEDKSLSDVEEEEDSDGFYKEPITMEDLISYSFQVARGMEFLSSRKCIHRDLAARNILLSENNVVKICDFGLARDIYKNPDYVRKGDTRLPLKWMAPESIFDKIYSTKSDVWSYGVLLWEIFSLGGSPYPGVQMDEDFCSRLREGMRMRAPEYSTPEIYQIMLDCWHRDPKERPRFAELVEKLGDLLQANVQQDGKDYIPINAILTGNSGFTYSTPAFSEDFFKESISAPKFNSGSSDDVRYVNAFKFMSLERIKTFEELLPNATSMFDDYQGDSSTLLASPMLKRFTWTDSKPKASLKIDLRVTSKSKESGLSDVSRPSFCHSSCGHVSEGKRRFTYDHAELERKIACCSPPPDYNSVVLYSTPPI

RIPK4 = RIPK4 (Homo sapiens, UniProt P57078)
TYRO3 = TYRO3 (Homo sapiens, UniProt Q06418)
ADRBK2 = target: T2, ADRBK2 (Homo sapiens, UniProt P35626)
T2 construct: gene GRK3

**Q.** Which remaining binding at 10 µM (TSSK3) does the source give for Oc1ccc(C2=Cc3ccc(O)cc3OC2)cc1 [compound 1, idronoxil] here?
**A.** 59%

**Q.** What about the remaining binding at 10 µM (MAP3K15) of the same compound?
**A.** 100%

**Q.** And the remaining binding at 10 µM (GRK1)?
**A.** 100%

**Q.** What about the remaining binding at 10 µM (CDKL3) of the same compound?
**A.** 59%

**Q.** What about the remaining binding at 10 µM (CSF1R) of the same compound?
**A.** 26%

**Q.** And the remaining binding at 10 µM (NTRK2)?
**A.** 62%

**Q.** What about the remaining binding at 10 µM (FLT3-autoinhibited) of the same compound?
**A.** 51%

**Q.** What about the remaining binding at 10 µM (MAP2K5) of the same compound?
**A.** 62%

**Q.** And the remaining binding at 10 µM (ABL1-nonphosphorylated)?
**A.** 32%

**Q.** And the remaining binding at 10 µM (TXK)?
**A.** 87%

**Q.** What about the remaining binding at 10 µM (PIK3C2G) of the same compound?
**A.** 73%

**Q.** What about the remaining binding at 10 µM (NEK3) of the same compound?
**A.** 80%

**Q.** And the remaining binding at 10 µM (LATS1)?
**A.** 100%

**Q.** And the remaining binding at 10 µM (SRPK3)?
**A.** 94%

**Q.** What about the remaining binding at 10 µM (MKNK1) of the same compound?
**A.** 55%

**Q.** And the remaining binding at 10 µM (MAPK14)?
**A.** 90%

**Q.** What about the remaining binding at 10 µM (FLT1) of the same compound?
**A.** 100%

**Q.** And the remaining binding at 10 µM (RIPK4)?
**A.** 73%

**Q.** What about the remaining binding at 10 µM (TYRO3) of the same compound?
**A.** 66%

**Q.** What about the remaining binding at 10 µM (ADRBK2) of the same compound?
**A.** 85%
